From patent publication US20060069123A1, “Substituted dipiperidine CCR2 antagonists” (priority 2004, published 2006) come the findings set out here.

Assay [1] concerns THP-1 cells. As to conditions: Homo sapiens.
In assay [2] the test system is THP-1 cells. Briefly: MCP-1 Induced Chemotaxis in THP-1 Cells. It is filed as cell-based. The conditions noted are these: Homo sapiens, THP-1 cells, MCP-1 0.01 μg/mL, 3 hours, read-out: Inhibition of MCP-1 Induced Chemotaxis IC50.
In the next assay the target is T1, CCR2 (Homo sapiens, UniProt P41597).
T1 sequence (P41597 1-360 isoform P41597-2): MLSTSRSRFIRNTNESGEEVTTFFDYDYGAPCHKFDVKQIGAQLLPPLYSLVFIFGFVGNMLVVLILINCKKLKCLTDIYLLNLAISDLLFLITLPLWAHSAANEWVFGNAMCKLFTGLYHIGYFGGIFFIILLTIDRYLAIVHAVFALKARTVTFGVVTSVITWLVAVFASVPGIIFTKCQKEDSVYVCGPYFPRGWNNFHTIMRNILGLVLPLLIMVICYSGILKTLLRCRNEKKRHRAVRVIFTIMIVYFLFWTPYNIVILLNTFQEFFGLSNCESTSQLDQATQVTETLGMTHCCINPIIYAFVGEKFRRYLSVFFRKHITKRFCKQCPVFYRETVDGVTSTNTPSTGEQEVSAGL

Setting [3] is: THP-1, read-out: Inhibition of MCP-1 Induced Calcium Ion Influx IC50.
Where [4] appears, read: THP-1, read-out: Inhibition of MCP-1 Induced Calcium Ion Influx IC50, THP-1 cells, 0.2 μM MCP-1, FLIPR.

Read-outs that look alike come from different tables or passages of the source.

A word on the IC50: it is the concentration that inhibits the measured activity by half.

Turning to `O=C(O)C(C1CCN(C(=O)Nc2cc(F)cc(C(F)(F)F)c2)CC1)N1CCC(c2c[nH]c3ccccc23)CC1` (centres unmarked) [Cpd 65, [1-(3-fluoro-5-trifluoromethyl-phenylcarbamoyl)-piperidin-4-yl]-[4-(1H-indol-3-yl)-piperidin-1-yl]-acetic acid], the IC50 in the assay with THP-1 cells [1] (setting [3]) was 120 nM; in the assay on THP-1 cells [2], 1600 nM; against CCR2, 353 nM.
The matching figures for `O=C(O)C(C1CCN(C(=O)Nc2ccc(Br)cc2)CC1)N1CCC(c2c[nH]c3ccccc23)CC1` (centres unmarked) [Cpd 89, [1-(4-bromo-phenylcarbamoyl)-piperidin-4-yl]-[4-(1H-indol-3-yl)-piperidin-1-yl]-acetic acid]: 470 nM, 210 nM and 95 nM.
For `O=C(O)C(C1CCN(C(=O)Nc2cccc(F)c2)CC1)N1CCC(c2c[nH]c3ccccc23)CC1` (centres unmarked) [Cpd 91, [1-(3-fluoro-phenylcarbamoyl)-piperidin-4-yl]-[4-(1H-indol-3-yl)-piperidin-1-yl]-acetic acid], the results for the IC50 in the assay with THP-1 cells [1] (setting [3]), in the assay with THP-1 cells [2] and on CCR2 were 890 nM, 270 nM and 305 nM, respectively.
The like results for `O=C(O)C(C1CCN(C(=O)Nc2cccc(C(F)(F)F)c2)CC1)N1CCC(c2c[nH]c3ccccc23)CC1` (centres unmarked) [Cpd 97, [4-(1H-indol-3-yl)-piperidin-1-yl]-[1-(3-trifluoromethyl-phenylcarbamoyl)-piperidin-4-yl]-acetic acid] were, in that order, 970 nM, 230 nM and 250 nM.
The matching figures for `Cc1cccc(NC(=O)N2CCC(C(C(=O)O)N3CCC(c4c[nH]c5ccccc45)CC3)CC2)c1` (centres unmarked) [Cpd 98, [4-(1H-indol-3-yl)-piperidin-1-yl]-(1-m-tolylcarbamoyl-piperidin-4-yl)-acetic acid]: 1850 nM, 2200 nM and 890 nM.
The matching figures for `Cc1ccc(NC(=O)N2CCC(C(C(=O)O)N3CCC(c4c[nH]c5ccccc45)CC3)CC2)cc1` (centres unmarked) [Cpd 99, [4-(1H-indol-3-yl)-piperidin-1-yl]-(1-p-tolylcarbamoyl-piperidin-4-yl)-acetic acid]: 1600 nM, 2500 nM and 810 nM.
As for `Cc1cc(NC(=O)N2CCC(C(C(=O)O)N3CCC(c4c[nH]c5ccccc45)CC3)CC2)ccc1Br` (centres unmarked) [Cpd 101, [1-(4-bromo-3-methyl-phenylcarbamoyl)-piperidin-4-yl]-[4-(1H-indol-3-yl)-piperidin-1-yl]-acetic acid], the IC50 is 130 nM with THP-1 cells [1] (setting [3]), 140 nM with THP-1 cells [2] and 20 nM against CCR2.
The matching figures for `Cc1cc(NC(=O)N2CCC(C(C(=O)O)N3CCC(c4c[nH]c5ccccc45)CC3)CC2)ccc1F` (centres unmarked) [Cpd 102, [1-(4-fluoro-3-methyl-phenylcarbamoyl)-piperidin-4-yl]-[4-(1H-indol-3-yl)-piperidin-1-yl]-acetic acid]: 860 nM, 230 nM and 260 nM.
The matching figures for `O=C(O)C(C1CCN(C(=O)/C=C/c2cccs2)CC1)N1CCC(c2c[nH]c3ccccc23)CC1` (centres unmarked) [Cpd 103, [4-(1H-indol-3-yl)-piperidin-1-yl]-{1-[(2E)-3-thiophen-2-yl-acryloyl]-piperidin-4-yl}-acetic acid]: 490 nM, 90 nM and 70 nM.
The like results for `O=C(O)C(C1CCN(C(=O)/C=C/c2ccsc2)CC1)N1CCC(c2c[nH]c3ccccc23)CC1` (centres unmarked) [Cpd 104, [4-(1H-indol-3-yl)-piperidin-1-yl]-{1-[(2E)-3-thiophen-3-yl-acryloyl]-piperidin-4-yl}-acetic acid] were, in that order, 1010 nM, 160 nM and 90 nM.
`Cc1ccc(NC(=O)N2CCC(C(C(=O)O)N3CCC(c4c[nH]c5ccccc45)CC3)CC2)cc1F` (centres unmarked) [Cpd 105, [1-(3-fluoro-4-methyl-phenylcarbamoyl)-piperidin-4-yl]-[4-(1H-indol-3-yl)-piperidin-1-yl]-acetic acid]: the values for the IC50 in the assay with THP-1 cells [1] (setting [3]), in the assay with THP-1 cells [2] and at CCR2 were 130 nM, 10 nM and 90 nM, respectively.
In the case of `Cc1ccc(NC(=O)N2CCC(C(C(=O)O)N3CCC(c4c[nH]c5ccccc45)CC3)CC2)cc1C(F)(F)F` (centres unmarked) [Cpd 106, [4-(1H-indol-3-yl)-piperidin-1-yl]-[1-(4-methyl-3-trifluoromethyl-phenylcarbamoyl)-piperidin-4-yl]-acetic acid], the values for the IC50 with THP-1 cells [1] (setting [3]), with THP-1 cells [2] and at CCR2 were 110 nM, 210 nM and 20 nM, respectively.
For `CS(=O)(=O)Nc1ccc2[nH]cc(C3CCN(C(C(=O)O)C4CCN(C(=O)Nc5ccc(Cl)c(Cl)c5)CC4)CC3)c2c1` (centres unmarked) [Cpd 109, [1-(3,4-dichloro-phenylcarbamoyl)-piperidin-4-yl]-[4-(5-methanesulfonylamino-1H-indol-3-yl)-piperidin-1-yl]-acetic acid], the figures for the IC50 with THP-1 cells [1] (setting [3]), in the assay on THP-1 cells [2] and against CCR2 were 30 nM, 30 nM and 20 nM, respectively.
For `O=C(/C=C/c1cc(F)c(F)c(F)c1)N1CCC(C(CO)N2CCC(c3c[nH]c4ccccc34)CC2)CC1` (centres unmarked) [Cpd 112, (2E)-1-(4-{2-hydroxy-1-[4-(1H-indol-3-yl)-piperidin-1-yl]-ethyl}-piperidin-1-yl)-3-(3,4,5-trifluoro-phenyl)-propenone], the IC50 was determined as 0.6 nM in the assay on THP-1 cells [1] (setting [3]), 4 nM in the assay with THP-1 cells [2] and 4 nM against CCR2.
Consider `O=C(/C=C/c1ccc(F)c(F)c1)N1CCC(C(CO)N2CCC(c3c[nH]c4ccccc34)CC2)CC1` (centres unmarked) [Cpd 113, (2E)-3-(3,4-difluoro-phenyl)-1-(4-{2-hydroxy-1-[4-(1H-indol-3-yl)-piperidin-1-yl]-ethyl}-piperidin-1-yl)-propenone], for which the IC50 stood at 1 nM in the assay on THP-1 cells [1] (setting [4]); 95 nM in the assay with THP-1 cells [2] (THP-1, 3 h); 6 nM at CCR2 (Inhibition of MCP-1 Binding IC50, 125I labeled MCP-1 binding to CCR2, THP-1 cells).
For the compound `O=C(O)C(C1CCN(C(=O)COc2ccc(Cl)c(Cl)c2)CC1)N1CCC(c2c[nH]c3ccccc23)CC1` (centres unmarked) [Cpd 114, {1-[2-(3,4-dichloro-phenoxy)-acetyl]-piperidin-4-yl}-[4-(1H-indol-3-yl)-piperidin-1-yl]-acetic acid], the IC50 was determined as 210 nM in the assay on THP-1 cells [1] (setting [4]); 290 nM in the assay on THP-1 cells [2] (THP-1, 3 h); 350 nM on CCR2.
In the case of `O=C(/C=C/c1cc(F)cc(F)c1)N1CCC(C(CO)N2CCC(c3c[nH]c4ccccc34)CC2)CC1` (centres unmarked) [Cpd 116, (2E)-3-(3,5-difluoro-phenyl)-1-(4-{2-hydroxy-1-[4-(1H-indol-3-yl)-piperidin-1-yl]-ethyl}-piperidin-1-yl)-propenone], the IC50 with THP-1 cells [1] (setting [3]) is 2 nM; with THP-1 cells [2] it was 0.4 nM; on CCR2, 0.6 nM.
Take `O=C(/C=C/c1ccc(Cl)c(Cl)c1)N1CCC(C(CO)N2CCC(c3c[nH]c4ccccc34)CC2)CC1` (centres unmarked) [Cpd 121, (2E)-3-(3,4-dichloro-phenyl)-1-(4-{2-hydroxy-1-[4-(1H-indol-3-yl)-piperidin-1-yl]-ethyl}-piperidin-1-yl)-propenone]: the IC50 worked out at 0.1 nM in the assay with THP-1 cells [1] (setting [3]), 12 nM with THP-1 cells [2] and 0.2 nM on CCR2.
The like results for `O=C(Nc1ccc(Cl)c(Cl)c1)N1CCC(C(CO)N2CCC(c3c[nH]c4ccccc34)CC2)CC1` (centres unmarked) [Cpd 123, 4-{2-hydroxy-1-[4-(1H-indol-3-yl)-piperidin-1-yl]-ethyl}-piperidine-1-carboxylic acid (3,4-dichloro-phenyl)-amide] were, in that order, 4 nM, 5 nM and 9 nM.
The matching figures for `CSc1ccc(NC(=O)N2CCC(C(C(=O)O)N3CCC(c4c[nH]c5ccccc45)CC3)CC2)cc1` (centres unmarked) [Cpd 127, [4-(1H-indol-3-yl)-piperidin-1-yl]-[1-(4-methylsulfanyl-phenylcarbamoyl)-piperidin-4-yl]-acetic acid]: 820 nM, 750 nM and 760 nM.
The matching figures for `O=C(Nc1cc(F)cc(F)c1)N1CCC(C(CO)N2CCC(c3c[nH]c4ccccc34)CC2)CC1` (centres unmarked) [Cpd 129, 4-{2-hydroxy-1-[4-(1H-indol-3-yl)-piperidin-1-yl]-ethyl}-piperidine-1-carboxylic acid (3,5-difluoro-phenyl)-amide]: 20 nM, 80 nM and 40 nM.
With `COc1cccc2c(C3CCN(C(CO)C4CCN(C(=O)/C=C/c5cc(F)c(F)c(F)c5)CC4)CC3)c[nH]c12` (centres unmarked) [Cpd 133, (2E)-1-(4-{2-hydroxy-1-[4-(7-methoxy-1H-indol-3-yl)-piperidin-1-yl]-ethyl}-piperidin-1-yl)-3-(3,4,5-trifluoro-phenyl)-propenone], the IC50 in the assay on THP-1 cells [1] (setting [3]) turned out to be 0.8 nM; in the assay with THP-1 cells [2], 40 nM; at CCR2, 10 nM.
On to `CC(=O)NCC(C1CCN(C(=O)/C=C/c2cc(F)c(F)c(F)c2)CC1)N1CCC(c2c[nH]c3ccccc23)CC1` (centres unmarked) [Cpd 213, N-(2-[4-(1H-indol-3-yl)-piperidin-1-yl]-2-{1-[(2E)-3-(3,4,5-trifluoro-phenyl)-acryloyl]-piperidin-4-yl}-ethyl)-acetamide], for which the IC50 in the assay on THP-1 cells [1] (setting [3]) was determined as 90 nM; in the assay with THP-1 cells [2], 170 nM.
